Measured values: patent publication US6936584B1, “Mixed amylin activity compounds” (Amylin Pharmaceuticals, Inc., priority 1998, dated 2005)
Square brackets hold non-standard residues; d marks the D form. Ends that are not written are not given here. * marks the point of attachment. Aib = CC(C)(N)C(=O)O; For = O=C*

What was measured:
calcitonin receptors = target: T1, calcitonin receptors (Homo sapiens, UniProt P30988); test: Adenyl cyclase stimulation, cyclic AMP accumulation in MCF7-7 cells; format: cell-based
T1 sequence (P30988 25-474): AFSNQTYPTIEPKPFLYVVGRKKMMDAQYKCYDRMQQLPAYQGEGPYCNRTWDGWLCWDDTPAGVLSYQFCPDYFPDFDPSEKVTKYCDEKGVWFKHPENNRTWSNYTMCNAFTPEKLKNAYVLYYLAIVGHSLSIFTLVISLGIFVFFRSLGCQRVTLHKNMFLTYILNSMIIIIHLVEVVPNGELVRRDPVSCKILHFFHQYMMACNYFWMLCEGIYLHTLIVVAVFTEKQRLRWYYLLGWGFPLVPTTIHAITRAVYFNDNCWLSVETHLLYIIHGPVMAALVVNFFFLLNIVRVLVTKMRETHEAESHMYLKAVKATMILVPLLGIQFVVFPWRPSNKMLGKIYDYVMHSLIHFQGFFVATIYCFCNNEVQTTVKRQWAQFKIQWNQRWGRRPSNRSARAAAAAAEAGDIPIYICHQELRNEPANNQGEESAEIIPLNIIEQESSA

[1] = target: human calcitonin receptors (T47D and MCF7-7 breast carcinoma cells) (human) (UniProt P30988); test: cell-based or functional assay
[2] = Effect on plasma glucose, lactate and calcium levels in anesthetized rats; format: in vivo, rat; conditions: 100 μg subcutaneous
gastric emptying in rats = test: Phenol red gastric emptying assay in conscious rats; conditions: for dose at which suppression of gastric emptying was complete / ED50 for inhibition of gastric emptying: subcutaneous; for ED50 for inhibition of gastric emptying: normal (Harlan Sprague Dawley) rats, ±0.19 log units; for inhibition of gastric emptying: conscious rat model, adrenomedullin at highest doses (100 μg); for ED50 inhibiting gastric emptying (FIG. 7): conscious rats
[3] = target: T2, human calcitonin receptors (T47D and MCF7-7 breast carcinoma cells) (human, UniProt P30988 25-474); test: radioligand competition, [125I]salmon calcitonin on T47D cell membranes
T2 construct: whole, on cells; also called calcitonin (T47D) receptors
T2 sequence (looked up): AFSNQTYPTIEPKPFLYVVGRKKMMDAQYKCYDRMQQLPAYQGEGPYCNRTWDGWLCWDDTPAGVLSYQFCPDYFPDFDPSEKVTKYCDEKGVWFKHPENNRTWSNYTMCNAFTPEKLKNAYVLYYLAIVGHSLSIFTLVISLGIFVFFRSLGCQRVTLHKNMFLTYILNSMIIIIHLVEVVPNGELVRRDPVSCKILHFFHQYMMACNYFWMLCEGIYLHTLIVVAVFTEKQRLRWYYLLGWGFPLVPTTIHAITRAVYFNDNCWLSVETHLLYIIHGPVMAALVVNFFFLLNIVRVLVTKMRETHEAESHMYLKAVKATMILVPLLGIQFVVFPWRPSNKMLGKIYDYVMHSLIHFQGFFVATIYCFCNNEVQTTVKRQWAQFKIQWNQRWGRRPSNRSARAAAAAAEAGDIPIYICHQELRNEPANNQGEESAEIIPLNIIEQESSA

[4] = target: T3, human CGRP receptors (SK-N-MC neuroblastoma cells) (human, UniProt Q16602 23-461; O60894 27-148); test: radioligand competition, SK-N-MC membranes against rat nucleus accumbens membranes
T3 construct: whole, on cells; also called CGRP (SK-N-MC) receptors
T3 sequence (Q16602 23-461, chain 1 of 2): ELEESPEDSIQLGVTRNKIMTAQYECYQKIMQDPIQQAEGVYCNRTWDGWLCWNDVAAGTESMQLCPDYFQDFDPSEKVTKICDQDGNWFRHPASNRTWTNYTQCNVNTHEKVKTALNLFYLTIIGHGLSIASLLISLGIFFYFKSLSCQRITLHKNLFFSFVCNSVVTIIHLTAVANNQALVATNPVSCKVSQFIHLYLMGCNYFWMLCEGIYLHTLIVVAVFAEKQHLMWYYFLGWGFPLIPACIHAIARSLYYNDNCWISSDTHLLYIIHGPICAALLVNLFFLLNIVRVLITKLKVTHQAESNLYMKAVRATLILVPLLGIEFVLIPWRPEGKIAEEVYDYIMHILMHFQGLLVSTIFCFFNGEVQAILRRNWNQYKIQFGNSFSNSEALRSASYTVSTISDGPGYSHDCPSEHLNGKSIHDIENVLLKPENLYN
T3 sequence (O60894 27-148, chain 2 of 2): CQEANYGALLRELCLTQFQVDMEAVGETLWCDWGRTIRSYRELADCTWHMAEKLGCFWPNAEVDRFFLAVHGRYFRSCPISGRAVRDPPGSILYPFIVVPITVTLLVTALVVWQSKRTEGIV

[5] = target: T4, amylin receptors of rat nucleus accumbens membranes (rat); test: radioligand competition, 125I-BH-rat amylin on rat nucleus accumbens membranes
T4 chain 1: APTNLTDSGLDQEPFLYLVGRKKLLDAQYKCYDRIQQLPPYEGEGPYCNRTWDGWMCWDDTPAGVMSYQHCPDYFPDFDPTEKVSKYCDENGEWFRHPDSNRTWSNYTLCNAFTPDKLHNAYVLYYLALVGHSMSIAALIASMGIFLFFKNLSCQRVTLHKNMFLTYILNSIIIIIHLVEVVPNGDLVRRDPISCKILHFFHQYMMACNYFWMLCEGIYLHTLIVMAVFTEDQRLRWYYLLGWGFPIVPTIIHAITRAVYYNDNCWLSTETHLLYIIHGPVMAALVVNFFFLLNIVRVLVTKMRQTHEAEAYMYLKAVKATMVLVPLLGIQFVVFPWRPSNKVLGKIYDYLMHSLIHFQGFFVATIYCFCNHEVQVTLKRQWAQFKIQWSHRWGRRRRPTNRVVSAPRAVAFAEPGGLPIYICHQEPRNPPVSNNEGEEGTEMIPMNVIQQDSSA
T4 chain 2: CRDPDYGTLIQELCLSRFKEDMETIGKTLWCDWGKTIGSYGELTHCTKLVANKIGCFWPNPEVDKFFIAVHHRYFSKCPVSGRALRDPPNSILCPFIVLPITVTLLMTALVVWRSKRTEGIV

[6] = target: T2, human calcitonin receptors (T47D and …); test: cell-based or functional assay

Leu-Ser-Thr-Ala-Val-Leu-Gly-Arg-Leu-Ser-Gln-Glu-Leu-His-Arg-Leu-Gln-Thr-Tyr-Pro-Arg-Thr-Asn-Thr-Gly-Ser-Asn-Thr-Tyr [Compound 4]
fold less potent than human calcitonin in stimulating adenyl cyclase activity (calcitonin receptors): 7 fold

human amylin (from UniProt P10997 34-70) (ligand)
fold less potent than calcitonin in stimulating adenyl cyclase activity, MCF7-7 cells [1]: 5 fold
fold less potent than calcitonin in stimulating adenyl cyclase activity, T47D cells [1]: 7 fold

rat amylin: Synthetic rat amylin (Bachem, Torrance, Calif.), positive control
plasma calcium concentration [2]: fall
plasma glucose [2]: increase
plasma lactate [2]: increase
dose at which suppression of gastric emptying was complete (gastric emptying in rats; diabetic rats): 10 µg
ED50 for inhibition of gastric emptying (gastric emptying in rats; 5 minutes before gavage): 0.43 µg
ED50 for inhibition of gastric emptying (gastric emptying in rats): 0.60 nmol/kg
dose at which suppression of gastric emptying was complete (gastric emptying in rats; normal HSD rats): 1 µg

rat calcitonin
inhibition of gastric emptying (gastric emptying in rats): dose-dependently inhibit gastric emptying
ED50 inhibiting gastric emptying (FIG. 7) (gastric emptying in rats): 0.41 μg/rat

Salmon calcitonin
inhibition of gastric emptying (gastric emptying in rats): dose-dependently inhibit gastric emptying
ED50 inhibiting gastric emptying (FIG. 7) (gastric emptying in rats): 0.12 μg/rat

Adrenomedullin: observed to behave as a CGRP agonist but not as an amylin or calcitonin agonist (YRQSMNNFQGLRSFGCRFGTCTVQKLAHQIYQFTDKDKDNVAPRSKISPQGY; ends and bridges not checked; cysteine pairing not given here; UniProt P35318 95-146, looked up)
inhibition of gastric emptying (gastric emptying in rats): does not inhibit gastric emptying

XLSTSVLGRLSQELHRLQTYPRTNTGSNTY (N-terminal acetyl (Ac-Leu)) [Compound 3]
IC50 [3]: 1.45 nM
fold lower affinity than for the amylin receptors [4]: ≥ 300 fold
IC50 [5]: 37 nM

XLSTAVLGRLSQELHRLQTYPRTNTGSNTY (N-terminal acetyl (Ac-Leu)) [Compound 6]
EC50 of adenylyl cyclase stimulation, MCF7-7 cells [6]: 34 nM
fold lower potency than human calcitonin, MCF7-7 cells [6]: 80 fold
IC50 [3]: 0.56 nM
fold lower affinity than for the amylin receptors [4]: ≥ 300 fold
IC50 [5]: 18.6 nM

VL[Aib]K(For)LSQEL[Aib]K(For)LQTYPRTNTGSNTY-NH2 [Compound 8]
IC50 [3]: 93 nM
